This passage reports IC50 results from US20240228482A1, “COMPOUNDS, COMPOSITIONS AND METHODS OF TREATING CANCER” (HOTSPOT THERAPEUTICS, INC., priority 2021, published 2024).

A word on the IC50: it is the point on the concentration scale where inhibition reaches its midpoint.

The target in the test is T1, CBL-B (Homo sapiens, UniProt Q13191).
T1 construct: GST
T1 sequence (Q13191 whole entry): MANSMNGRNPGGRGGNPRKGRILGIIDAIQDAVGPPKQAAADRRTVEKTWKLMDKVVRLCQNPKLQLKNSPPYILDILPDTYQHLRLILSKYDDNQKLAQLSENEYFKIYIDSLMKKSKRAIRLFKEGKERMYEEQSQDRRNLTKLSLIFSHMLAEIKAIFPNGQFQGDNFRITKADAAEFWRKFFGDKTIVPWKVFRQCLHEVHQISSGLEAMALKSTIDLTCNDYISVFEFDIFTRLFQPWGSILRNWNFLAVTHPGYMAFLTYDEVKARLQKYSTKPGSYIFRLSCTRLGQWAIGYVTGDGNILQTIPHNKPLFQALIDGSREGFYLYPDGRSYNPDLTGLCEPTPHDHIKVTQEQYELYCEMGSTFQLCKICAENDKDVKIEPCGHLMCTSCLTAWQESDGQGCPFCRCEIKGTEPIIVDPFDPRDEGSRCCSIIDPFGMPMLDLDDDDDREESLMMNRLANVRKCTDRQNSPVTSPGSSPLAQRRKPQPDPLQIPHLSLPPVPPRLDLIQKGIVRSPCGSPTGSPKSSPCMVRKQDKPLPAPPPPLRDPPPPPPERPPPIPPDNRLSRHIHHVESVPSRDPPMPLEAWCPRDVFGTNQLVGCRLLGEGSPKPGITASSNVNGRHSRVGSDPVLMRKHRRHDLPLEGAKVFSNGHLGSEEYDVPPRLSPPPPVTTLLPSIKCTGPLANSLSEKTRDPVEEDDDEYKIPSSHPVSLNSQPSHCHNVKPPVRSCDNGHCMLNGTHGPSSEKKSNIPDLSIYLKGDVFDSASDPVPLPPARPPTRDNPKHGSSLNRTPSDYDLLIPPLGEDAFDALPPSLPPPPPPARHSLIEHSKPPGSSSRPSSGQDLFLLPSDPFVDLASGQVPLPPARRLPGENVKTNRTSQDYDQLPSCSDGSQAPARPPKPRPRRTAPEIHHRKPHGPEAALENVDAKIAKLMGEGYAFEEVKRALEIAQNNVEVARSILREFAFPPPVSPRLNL
Nature of the test: CBL-B TR-FRET IC50 screening (E1/E2 ubiquitination, Biotin-Ubiquitin, Anti GST-Tb donor / Streptavidin-d2 acceptor). It is filed as biochemical. As to conditions: CBL-B 10 nM final; 11-point titration from 100 uM; binned A-F; read-out: CBL-B TR-FRET activity IC50.
In the case of `C[C@H](c1cc(C(F)(F)F)c2cn(-c3cccc(C4(Cc5nncn5C)COC4)c3)c(=O)n2c1)N1CC2CC2C1` (stereo partly shown) [Compound 37], the half-maximal inhibitory concentration (IC50) is below 100 nM.

In the case of `CN(CCO)C(=O)c1cc(C(F)(F)F)c2cn(-c3cccc(C4(Cc5nncn5C)COC4)c3)c(=O)n2c1` [Compound 38], the IC50 is 301 to 1000 nM.

Take `C[C@@H](c1cc(C(F)(F)F)c2cn(-c3cccc(C4(Cc5nncn5C)COC4)c3)c(=O)n2c1)N1CC[C@H](F)C1` [Compound 39]: the IC50 was below 100 nM.

Take `C[C@H](c1cc(C(F)(F)F)c2cn(-c3cccc(C4(Cc5nncn5C)COC4)c3)c(=O)n2c1)N1CC[C@H](F)C1` [Compound 40]: the IC50 is below 100 nM.

In the case of `C[C@@H](c1cc(C(F)(F)F)c2cn(-c3cccc(C4(Cc5nncn5C)COC4)c3)c(=O)n2c1)N1CCC(C)(F)CC1` [Compound 41], the half-inhibitory concentration (IC50) was below 100 nM.

Regarding `C[C@H](c1cc(C(F)(F)F)c2cn(-c3cccc(C4(Cc5nncn5C)COC4)c3)c(=O)n2c1)N1CCC(C)(F)CC1` [Compound 42], the IC50 was below 100 nM.

With `Cn1cnnc1[C@@H]1C[C@@H]1c1cccc(-n2cc3c(C(F)(F)F)cccn3c2=O)c1` [Compound 43], the IC50 lay in the range of 3000 to 10000 nM.

Take `Cn1cnnc1[C@@H](F)C1(c2cccc(-n3cc4c(C(F)(F)F)cc(CN5CCC(F)CC5)cn4c3=O)c2)COC1` [Compound 44]: the IC50 was below 100 nM.

Regarding `C[C@H](Cc1nnc[nH]1)c1cccc(-n2cc3c(C(F)(F)F)cccn3c2=O)c1` [Compound 46], the IC50 lay in the range of 1000 to 3000 nM.

As to `C[C@@H](Cc1nnc[nH]1)c1cccc(-n2cc3c(C(F)(F)F)cccn3c2=O)c1` [Compound 47], the IC50 was above 10000 nM.

Turning to `C[C@H]1CCCN(Cc2cc(C(F)(F)F)c3cn(-c4cccc(C5(Cc6nncn6C(F)F)COC5)c4)c(=O)n3c2)C1` [Compound 48], the IC50 was below 100 nM.

Consider `COC1CCN(Cc2cc(C(F)(F)F)c3cn(-c4cccc(C5(Cc6nncn6C)COC5)c4)c(=O)n3c2)CC1` [Compound 49], for which the IC50 was below 100 nM.

For the molecule `COCCNCc1cc(C(F)(F)F)c2cn(-c3cccc(C4(Cc5nncn5C)COC4)c3)c(=O)n2c1` [Compound 50], the IC50 was below 100 nM.

On to `COCCN(C)Cc1cc(C(F)(F)F)c2cn(-c3cccc(C4(Cc5nncn5C)COC4)c3)c(=O)n2c1` [Compound 51], for which the IC50 lay in the range of 301 to 1000 nM.

For the molecule `CC(Cc1nncn1C)c1ccc(F)c(-n2cc3c(C(F)(F)F)cccn3c2=O)c1` (stereo not shown) [Compound 52], the IC50 was 3000 to 10000 nM.

On to `Cn1cnnc1CC1(c2cccc(-n3cc4c(C(F)(F)F)cc(CN5CCC(O)CC5)cn4c3=O)c2)COC1` [Compound 53], for which the IC50 is below 100 nM.

On to `C[C@@H](c1cc(C(F)(F)F)c2cn(-c3cccc(C4([C@H](F)c5nncn5C)COC4)c3)c(=O)n2c1)N1CCC2(CC2)C1` [Compound 54], for which the half-inhibitory concentration (IC50) lay in the range of 100 to 300 nM.

As for `C[C@H](c1cc(C(F)(F)F)c2cn(-c3cccc(C4([C@@H](F)c5nncn5C)COC4)c3)c(=O)n2c1)N1CCC2(CC2)C1` [Compound 55], the IC50 is below 100 nM.

Consider `C[C@@H](c1cc(C(F)(F)F)c2cn(-c3cccc(C4([C@@H](F)c5nncn5C)COC4)c3)c(=O)n2c1)N1CCC2(CC2)C1` [Compound 56], for which the IC50 is below 100 nM.

As to `C[C@H](c1cc(C(F)(F)F)c2cn(-c3cccc(C4([C@H](F)c5nncn5C)COC4)c3)c(=O)n2c1)N1CCC2(CC2)C1` [Compound 57], the IC50 was below 100 nM.

Turning to `CN1CC=C(c2cc(C(F)(F)F)c3cn(-c4cccc(C5(Cc6nncn6C)COC5)c4)c(=O)n3c2)CC1` [Compound 58, 2-(3-[3-[(4-methyl-1,2,4-triazol-3-yl)methyl]oxetan-3-yl]phenyl)-6-(1-methyl-3,6-dihydro-2H-pyridin-4-yl)-8-(trifluoromethyl)imidazo[1,5-a]pyridin-3-one], the IC50 lay in the range of 1000 to 3000 nM.

As to `Cn1cnnc1CC1(c2cccc(-n3cc4c(C(F)(F)F)cc(CN5CC(O)C5)cn4c3=O)c2)COC1` [Compound 61], the IC50 is 100 to 300 nM.

As for `CN1CCC=C(c2cc(C(F)(F)F)c3cn(-c4cccc(C5(Cc6nncn6C)COC5)c4)c(=O)n3c2)C1` [Compound 63], the IC50 lay in the range of 100 to 300 nM.

Turning to `Cn1cnnc1CC1(c2cccc(-n3cc4c(C(F)(F)F)cc(C5=CCNC5)cn4c3=O)c2)COC1` [Compound 64], the 50% inhibitory concentration (IC50) is 1000 to 3000 nM.

On to `Cn1cnnc1CC1(c2cccc(-n3cc4c(C(F)(F)F)cc(C5CCN(C(=O)OC(C)(C)C)C5)cn4c3=O)c2)COC1` (stereo not shown) [Compound 65], for which the IC50 fell in the range of 301 to 1000 nM.

`Cn1cnnc1CC1(c2cccc(-n3cc4c(Cl)cc(CN5CC[C@H](F)C5)cn4c3=O)c2)COC1` [Compound 66]: the IC50 was below 100 nM.

`C=C(C)C[C@H](c1cccc(-n2cc3c(C(F)(F)F)cc(CN4CCC[C@H](C)C4)cn3c2=O)c1)c1nncn1C` [Compound 69]: the IC50 is below 100 nM.

For `Cc1cccn2c(=O)n(-c3cccc(C4(Cc5nncn5C)COC4)c3)cc12` [Compound 70], the IC50 was in the range of 301 to 1000 nM.

`Cn1cnnc1CC1(c2cccc(-n3cc4ccccn4c3=O)c2)COC1` [Compound 71]: the concentration for half-maximal inhibition (IC50) fell in the range of 100 to 300 nM.

Consider `C[C@@H]1CN(Cc2cc(C(F)(F)F)c3cn(-c4cccc(C5(Cc6nncn6C)COC5)c4)c(=O)n3c2)CCC1(F)F` [Compound 72], for which the IC50 was 301 to 1000 nM.

Consider `C[C@H]1CN(Cc2cc(C(F)(F)F)c3cn(-c4cccc(C5(Cc6nncn6C)COC5)c4)c(=O)n3c2)CCC1(F)F` [Compound 73], for which the IC50 lay in the range of 3000 to 10000 nM.

For the molecule `C[C@H]1CCCN(Cc2cc(C(F)(F)F)c3cn(-c4cccc(C5(c6nncn6C)CC6(CC6)C5)c4)c(=O)n3c2)C1` [Compound 74], the half-maximal inhibitory concentration (IC50) fell in the range of 100 to 300 nM.

As to `Cn1cnnc1CC1(c2cccc(-n3cc4c(C(F)(F)F)cc(CNCCO)cn4c3=O)c2)COC1` [Compound 75], the IC50 lay within 100 to 300 nM.

As to `CN(CCO)Cc1cc(C(F)(F)F)c2cn(-c3cccc(C4(Cc5nncn5C)COC4)c3)c(=O)n2c1` [Compound 76], the IC50 lay in the range of 100 to 300 nM.

Take `COCCOCc1cc(C(F)(F)F)c2cn(-c3cccc(C4(Cc5nncn5C)COC4)c3)c(=O)n2c1` [Compound 77]: the IC50 is below 100 nM.

In the case of `CN1CC=C(c2cc(C(F)(F)F)c3cn(-c4cccc(C5(Cc6nncn6C)COC5)c4)c(=O)n3c2)C1` [Compound 78], the IC50 was below 100 nM.

As for `CN(C)C1CC=C(c2cc(C(F)(F)F)c3cn(-c4cccc(C5(Cc6nncn6C)COC5)c4)c(=O)n3c2)CC1` (stereo not shown) [Compound 79], the IC50 is below 100 nM.

In the case of `Cn1cnnc1CC1(c2cccc(-n3cc4c(C(F)(F)F)cc(C5CCNC5)cn4c3=O)c2)COC1` (stereo not shown) [Compound 80], the IC50 is 301 to 1000 nM.

Turning to `CN1CCC(c2cc(C(F)(F)F)c3cn(-c4cccc(C5(Cc6nncn6C)COC5)c4)c(=O)n3c2)C1` (stereo not shown) [Compound 83], the IC50 is above 10000 nM.

Take `CN1CCCC(c2cc(C(F)(F)F)c3cn(-c4cccc(C5(Cc6nncn6C)COC5)c4)c(=O)n3c2)C1` (stereo not shown) [Compound 84]: the IC50 is above 10000 nM.

Turning to `C[C@H]1CCCN(Cc2cc(C(F)(F)F)c3cn(-c4cccc([C@H](c5nncn5C)C5CCC5)c4)c(=O)n3c2)C1` [Compound 85], the half-inhibitory concentration (IC50) is below 100 nM.

For the molecule `C[C@H]1CCCN(Cc2cc(C(F)(F)F)c3cn(-c4cccc([C@@H](c5nncn5C)C5CCC5)c4)c(=O)n3c2)C1` [Compound 86], the IC50 lay within 301 to 1000 nM.

Regarding `CN(C)C1CCC(c2cc(C(F)(F)F)c3cn(-c4cccc(C5(Cc6nncn6C)COC5)c4)c(=O)n3c2)CC1` (stereo not shown) [Compound 87], the half-maximal inhibitory concentration (IC50) fell in the range of 100 to 300 nM.

As to `COc1cc(C(F)(F)F)c2cn(-c3cccc(C4(Cc5nncn5C)COC4)c3)c(=O)n2c1` [Compound 88], the IC50 lay in the range of 1000 to 3000 nM.

Consider `Cn1cnnc1CC1(c2cccc(-n3cc4c(C(F)(F)F)cc(C#CCN5CCCC5)cn4c3=O)c2)COC1` [Compound 89], for which the IC50 was 100 to 300 nM.

Turning to `Cn1cnnc1CC1(c2cccc(-n3cc4c(C(F)(F)F)cc(COCCO)cn4c3=O)c2)COC1` [Compound 90], the IC50 was in the range of 100 to 300 nM.

For the molecule `O=c1n(-c2cccc(C3(Cc4nncn4C(F)F)COC3)c2)cc2c(C(F)(F)F)cc(CN3CCC4(CC4)C3)cn12` [Compound 91], the IC50 was below 100 nM.

On to `Cn1cnnc1CC1(c2cccc(-n3cc4c(C(F)(F)F)cc(CCC(=O)O)cn4c3=O)c2)COC1` [Compound 92], for which the IC50 fell in the range of 301 to 1000 nM.

Regarding `Cn1cnnc1CC1(c2cccc(-n3cc4c(C(F)(F)F)cc(Cl)cn4c3=O)c2)COC1` [Compound 93], the concentration for half-maximal inhibition (IC50) is 100 to 300 nM.

Take `Cn1cnnc1CC1(c2cccc(-n3cc4c(C=O)cccn4c3=O)c2)COC1` [Compound 94]: the IC50 was 3000 to 10000 nM.

In the case of `Cn1cnnc1CC1(c2cccc(-n3cc4c(C(F)F)cccn4c3=O)c2)COC1` [Compound 95], the IC50 lay in the range of 301 to 1000 nM.

Consider `Cn1cnnc1CC1(c2cccc(-n3cc4c(C(F)(F)F)cc(OCC(C)(C)O)cn4c3=O)c2)COC1` [Compound 98], for which the half-inhibitory concentration (IC50) was in the range of 100 to 300 nM.

Take `Cn1cnnc1CC1(c2cccc(-n3cc4c(C(F)(F)F)cc(C(C)(C)O)cn4c3=O)c2)COC1` [Compound 101]: the IC50 is 1000 to 3000 nM.

As for `[2H]C([2H])([2H])n1cnnc1C1(c2cccc(-n3cc4c(C(F)(F)F)cc(CN5CCC[C@H](C)C5)cn4c3=O)c2)CC2(CC2)C1` [Compound 102], the IC50 was below 100 nM.

Consider `Cn1cnnc1C1(c2cccc(-n3cc4c(C(F)(F)F)cc(Br)cn4c3=O)c2)CC2(CC2)C1` [Compound 103], for which the IC50 lay in the range of 100 to 300 nM.

Turning to `Cn1cnnc1CC1(c2cccc(-n3cc4c(C(F)(F)F)cc(F)cn4c3=O)c2)COC1` [Compound 104], the IC50 lay in the range of 100 to 300 nM.

As to `COc1cc(-n2cc3c(C(F)(F)F)cc(Br)cn3c2=O)cc(C2(Cc3nncn3C)COC2)c1` [Compound 105], the IC50 lay within 100 to 300 nM.

Turning to `Cn1cnnc1CC1(c2cccc(-n3cc4c(C(F)(F)F)cc(CN5CCNC(=O)C5)cn4c3=O)c2)COC1` [Compound 106], the IC50 is 100 to 300 nM.

As for `COc1cc(-n2cc3c(C(F)(F)F)cc(CN4CCC[C@H](C)C4)cn3c2=O)cc(C2(Cc3nncn3C)COC2)c1` [Compound 107], the IC50 is below 100 nM.

Consider `COc1cc(-n2cc3c(C(F)(F)F)cc(CN4CCC5(CC5)C4)cn3c2=O)cc(C2(Cc3nncn3C)COC2)c1` [Compound 108], for which the IC50 was below 100 nM.

Consider `COc1cc(-n2cc3c(C(F)(F)F)cc(CN4CC[C@H](F)C4)cn3c2=O)cc(C2(Cc3nncn3C)COC2)c1` [Compound 109], for which the concentration for half-maximal inhibition (IC50) was below 100 nM.
